Test results published in patent publication US8450318B2 (priority 2007, dated 2013).
In brackets after ≈: the same amount, converted by molar mass. Read-outs that look alike come from different tables or passages of the source.

Columns and labels:
[1] = tested on: Influenza A H1N1 subtype; test: Anti-influenza activity in MDCK cells, Influenza A H1N1; assay type: cell-based; details: for EC50 Influenza A H1N1 subtype MTS: cell viability, formazan-based MTS assay; for EC50 Influenza A H1N1 subtype visual CPE score: visual scoring of the CPE; for EC50: reference compounds
Source text: (§1) MDCK cells (Madin Darby canine kidney cells) have been used for the experiments shown in table 5 using standard procedures known in the art.

[2] = tested on: HIV-2; test: Antiretrovirus assay, HIV-2; details: Table 1
[3] = tested on: Influenza B; test: Anti-influenza activity in MDCK cells, Influenza B; assay type: cell-based; details: for EC50 Influenza B MTS: cell viability, formazan-based MTS assay; for EC50 Influenza B visual CPE score: visual scoring of the CPE; for EC50: reference compounds
[4] = tested on: human corona (SARS) virus; test: microbe, parasite or virus in culture; assay type: cell-based; details: human corona (SARS) virus
[5] = tested on: CRFK cells; details: cytotoxicity, feline corona virus test
[6] = tested on: CEM cells; test: Cytostatic/cytotoxic activity, inhibition of CEM cell proliferation; details: Table 1; for CC50: 50% cytostatic concentration, CEM cell proliferation
[7] = tested on: Influenza A H3N2 subtype; test: Anti-influenza activity in MDCK cells, Influenza A H3N2; assay type: cell-based; details: for EC50 Influenza A H3N2 subtype MTS: cell viability, formazan-based MTS assay; for EC50 Influenza A H3N2 subtype visual CPE score: visual scoring of the CPE; for EC50: reference compounds
Source text: as §1

[8] = tested on: CRFK cells; details: cytotoxicity, human corona virus test
[9] = tested on: HIV-1; details: Table 1; CEM cells, prevention of syncytium formation by 50%, 4 to 5 days
[10] = tested on: Feline Corona virus; test: Activity on feline corona virus in CRFK cells; assay type: cell-based
[11] = tested on: Herpes simplex virus-1 TK KOS-ACV^r; test: Antiviral activity, Herpes simplex virus-1 TK KOS-ACVr; assay type: cell-based; details: Human alphaherpesvirus 1, read-out: EC50 Herpes simplex virus-1 TK KOS-ACV^r
[12] = tested on: Herpes simplex virus-1 (KOS); test: Antiviral activity, Herpes simplex virus-1 (KOS); assay type: cell-based; details: Human alphaherpesvirus 1; Table 4, reference compounds
[13] = tested on: Vesicular stomatitis virus; test: microbe, parasite or virus in culture; assay type: cell-based; details: read-out: EC50 Vesicular stomatitis virus
[14] = tested on: Herpes simples virus-2 (G); test: Antiviral activity, Herpes simplex virus-2 (G); assay type: cell-based; details: Human alphaherpesvirus 2; Table 4, reference compounds
[15] = tested on: Vaccinia virus; test: microbe, parasite or virus in culture; assay type: cell-based; details: Orthopoxvirus vaccinia, read-out: EC50 Vaccinia virus
[16] = MTS, read-out: EC50 Influenza A H1N1 subtype MTS
[17] = visual CPE, read-out: EC50 Influenza A H1N1 subtype visual CPE score
[18] = MTS, read-out: EC50 Influenza B MTS
[19] = visual CPE, read-out: EC50 Influenza B visual CPE score
[20] = MTS, read-out: EC50 Influenza A H3N2 subtype MTS
[21] = visual CPE, read-out: EC50 Influenza A H3N2 subtype visual CPE score

Compound	EC50 Influenza A H1N1 subtype MTS [1]	EC50 Influenza A H1N1 subtype visual CPE score [1]	EC50 HIV-2 [2]	EC50 Influenza B MTS [3]	EC50 Influenza B visual CPE score [3]	CC50 [6]	EC50 Influenza A H3N2 subtype MTS [7]	EC50 Influenza A H3N2 subtype visual CPE score [7]	EC50 HIV-1 [9]	further results
CCc1c(CNc2ccc3ccc(C)nc3n2)c(CC)c(CNc2ccc3ccc(C)nc3n2)c(CC)c1CNc1ccc2ccc(C)nc2n1 [Compound 25]	>4 µg/mL	>4 µg/mL	>20 µg/mL	>4 µg/mL	>4 µg/mL	81.7 ± 26.0 µg/mL (≈ 121 µM)	>4 µg/mL	>4 µg/mL	1.25 ± 0.35 µg/mL (≈ 1.85 µM)	Human Corona virus EC50 [4]: 20 ± 5 µg/mL; Feline Corona virus CC50 [5]: 92 ± 9 µg/mL; cytotoxicity (in words) [6]: low cytotoxicity; Human Corona virus CC50 [8]: >100 µg/mL; Feline Corona virus EC50 [10]: 9.1 ± 0.4 µg/mL
Cc1ccc(NCc2c(C)c(CNc3ccc(C)cn3)c(C)c(CNc3ccc(C)cn3)c2C)nc1 [Compound 26]	–	–	>4 µg/mL	–	–	22.0 ± 8.2 µg/mL (≈ 45.8 µM)	–	–	>4 µg/mL	–
CC(=NO)c1cccc(NCc2c(C)c(CNc3cccc(C(C)=NO)c3)c(C)c(CNc3cccc(C(C)=NO)c3)c2C)c1 [Compound 27]	–	–	>4 µg/mL	–	–	20.4 ± 11.4 µg/mL (≈ 33.6 µM)	–	–	>4 µg/mL	–
CCc1c(CNc2cccc(C(C)=NO)c2)c(CC)c(CNc2cccc(C(C)=NO)c2)c(CC)c1CNc1cccc(C(C)=NO)c1 [Compound 28]	–	–	>4 µg/mL	–	–	10.0 ± 0.98 µg/mL (≈ 15.4 µM)	–	–	>4 µg/mL	–
CCc1c(CN)c(CC)c(CNc2cc(C)cc(C)n2)c(CC)c1CNc1cc(C)cc(C)n1 [Compound 29]	>0.8 µg/mL	>0.8 µg/mL	>0.8 µg/mL	>0.8 µg/mL	>0.8 µg/mL	1.69 ± 0.02 µg/mL (≈ 3.68 µM)	>0.8 µg/mL	>0.8 µg/mL	>0.16 µg/mL	–
Cc1cccc(NC(=O)c2cc(C(=O)Nc3cccc(C)n3)cc(C(=O)Nc3cccc(C)n3)c2)n1 [Compound 30]	–	–	>20 µg/mL	–	–	>100 µg/mL	–	–	>20 µg/mL	cytotoxicity (in words) [6]: low cytotoxicity
Nc1nc(O)c2ncn(COC(CO)CO)c2n1 [Ganciclovir]	–	–	–	–	–	–	–	–	–	EC50 [11]: 12000 nM; EC50 [12]: 6.4 nM; EC50 [13]: > 150000 nM; EC50 [14]: 32 nM; EC50 [15]: 100000 nM
CCC(CC)O[C@@H]1C=C(C(=O)O)C[C@H](N)[C@H]1NC(C)=O [Oseltamivir caboxylate, reference compound]	–	–	–	–	–	–	–	–	–	EC50 [1, 16]: 3 nM; EC50 [1, 17]: 4 nM; EC50 [3, 18]: 2600 nM; EC50 [3, 19]: 4000 nM; EC50 [7, 20]: 1600 nM; EC50 [7, 21]: 1800 nM
Cc1ccc(O)c(NC(=O)c2cc(C(=O)Nc3cc(C)ccc3O)cc(C(=O)Nc3cc(C)ccc3O)c2)c1 [Phe-Kresol]	>0.8 µg/mL	>0.8 µg/mL	–	>0.8 µg/mL	>0.8 µg/mL	–	>0.8 µg/mL	>0.8 µg/mL	–	–
CC(N)C12CC3CC(CC(C3)C1)C2 (stereo not shown) [Rimantadin, reference compound]	–	–	–	–	–	–	–	–	–	EC50 [1, 16]: 9900 nM; EC50 [1, 17]: 8900 nM; EC50 [3, 18]: > 100000 nM; EC50 [3, 19]: > 100000 nM; EC50 [7, 20]: 900 nM; EC50 [7, 21]: 2100 nM
Cc1ccc2ccc(NC(=O)c3cccc(C(=O)Nc4ccc5ccc(C)nc5n4)c3)nc2n1 [Sc74]	9.6 µg/mL (≈ 21.4 µM)	15.1 ± 7.0 µg/mL (≈ 33.7 µM)	–	9.9 µg/mL (≈ 22.1 µM)	10.9 ± 1.1 µg/mL (≈ 24.3 µM)	–	12.5 µg/mL (≈ 27.9 µM)	14.5 ± 7.8 µg/mL (≈ 32.3 µM)	–	Feline Corona virus CC50 [5]: >100 µg/mL; Feline Corona virus EC50 [10]: 29.0 ± 4.8 µg/mL
Cc1cc(C)c2ccc(NC(=O)c3cc(C(=O)Nc4ccc5c(C)cc(C)nc5n4)cc(C(=O)Nc4ccc5c(C)cc(C)nc5n4)c3)nc2n1 [Sc75]	>4 µg/mL	>4 µg/mL	–	>4 µg/mL	>4 µg/mL	–	>4 µg/mL	>4 µg/mL	–	–
